Source: patent US4857516A, “Coumaran derivatives and their pharmaceutical use” (Takeda Chemical Industries, Ltd., priority 1986, dated 1989)

Legend:
[1] = system: lipid peroxide production in rat brain homogenates; assay: Inhibitory action on lipid peroxide production in rat brain homogenates; format: biochemical; details: 5 v/v % rat brain homogenate, pH 7.4, 1 hour at 37° C.; read-out: Inhibition (IC50) of lipid peroxide production
Protocol: The male SD rat (12 weeks) brain tissue was extracted under anesthesia after depletion. The extracted brain tissue was used as 5 v/v % homogenate in phosphate buffer (pH 7.4). After incubation of the homogenate for 1 hour at 37° C., the peroxide produced was determined by the thiobarbituric acid method according to the method described in Analytical Biochemistry, 95, 551 (1979).
Before incubation, test compounds were added in 5 v/v % homogenate so that their final concentration becomes 10^-5 M. […]

[2] = system: generation of HHT in rat platelets; assay: Inhibitory effect on the generation of 12-hydroxyheptadeca-5,8,10-trienoic acid (HHT) in rat platelets; format: cell-based; details: rat platelet rich plasma; for inhibition at 100 µM: 10^-4 M; for inhibition at 10 µM: 10^-5 M
Protocol: Blood was collected in 3.2 v/v % sodium citrate (0.8 ml for 7.2 ml of blood) from the abdominal aorta of male Wister rats (Jcl, 12 to 15 weeks) anesthesized with pentobarbital. Platelet rich plasma (PRP) was obtained by centrifuging the blood at 800 rpm for 10 min at room temperature. Platelet poor plasma (PPP) was prepared by centrifuging the remaining blood at 3,000 rpm for 10 min. The platelet concentration of PRP was adjusted to 1,000,000/μl with PPP. […]
The reaction was stopped by adding 100 ml of ethanol and the mixture was allowed to stand for 10 min. at room temperature. The reaction mixture was centrifuged at 2,000 rpm for 10 min. and the supernatant obtained was evaporated. To the concentrate, 0.2 ml of 60 v/v % aqueous ethanol was added.
100 μl of this solution was subjected to high performance liquid chromatography for quantitative analysis of HHT. The amount of HHT was determined by measurement of absorbance at 237 nm with a UV absorption monitor.
The inhibitory effect (IE) on the generation of HHT is expressed by (1-b/a)×100, wherein a is the peak height or the peak area corrected with the peak due to the internal standard in the absence of the compound (I) or a pharmaceutically acceptable salt thereof, and b is the peak height or the peak area corrected with the peak due to the internal standard in the compound (I) or a pharmaceutically acceptable salt thereof.

[3] = target: T1, 5-lipoxygenase (Rattus norvegicus, UniProt P12527); assay: Inhibition of 5-lipoxygenase (5-HETE production in RBL-1 cells); format: cell-based; details: for inhibition at 1 µM: 10^-6 M; for inhibition at 0.1 µM: 10^-7 M; for inhibition at 0.01 µM: 10^-8 M
T1 construct: endogenous in cells; host or cells: RBL-1 (rat basophilic leukemia cells)
T1 sequence (P12527 1-673): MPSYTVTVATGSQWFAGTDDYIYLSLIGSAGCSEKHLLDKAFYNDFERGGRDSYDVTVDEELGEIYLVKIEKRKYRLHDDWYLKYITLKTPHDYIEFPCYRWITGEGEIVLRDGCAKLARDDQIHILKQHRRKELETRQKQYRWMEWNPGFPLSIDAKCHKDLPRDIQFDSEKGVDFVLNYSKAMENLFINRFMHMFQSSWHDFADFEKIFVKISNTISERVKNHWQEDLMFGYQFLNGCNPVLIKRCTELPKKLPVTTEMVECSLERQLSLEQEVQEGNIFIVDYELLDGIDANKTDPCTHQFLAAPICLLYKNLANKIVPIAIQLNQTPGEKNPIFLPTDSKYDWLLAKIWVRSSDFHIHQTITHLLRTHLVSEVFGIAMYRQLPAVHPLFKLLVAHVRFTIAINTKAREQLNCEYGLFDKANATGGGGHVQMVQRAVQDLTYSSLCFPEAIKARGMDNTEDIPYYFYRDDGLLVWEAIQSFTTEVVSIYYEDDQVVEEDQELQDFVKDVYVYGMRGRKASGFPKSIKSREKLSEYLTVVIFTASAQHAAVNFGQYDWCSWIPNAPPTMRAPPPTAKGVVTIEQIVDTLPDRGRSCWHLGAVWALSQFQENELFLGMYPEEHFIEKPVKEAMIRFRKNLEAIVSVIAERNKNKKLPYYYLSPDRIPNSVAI
Protocol: 10^7 RBL-1 cells (rat basophilic leukemia cells) were suspended in 0.5 ml of MCM (mast cell medium). […] Then 4 ml of ethanol was added, and the mixture was well shaken and kept at room temperature for 10 min.
The mixture was centrifuged for 10 min. (2000 rpm), and the supernatant was separated. The supernatant obtained was concentrated to dryness under reduced pressure. To the residue 0.5 ml of 60 v/v % aqueous methanol was added. One hundred μl of this solution was subjected to high performance liquid chromatography for quantitative analysis of 5-HETE (5-hydroxyeicosatetraenoic acid). The amount of 5-HETE was determined by measurement of the absorbance at 237 nm with a UV absorption monitor.
The inhibitory effect (IE) of production of 5-HETE is expressed by (1-b/a)×100, wherein a is the peak height or the area corrected with the peak due to the internal standard in the absence of the compound (I) or a pharmaceutically acceptable salt thereof, and b is the peak height or peak area corrected with the peak due to the internal standard in the presence of the compound (I) or a pharmaceutically acceptable salt thereof.

Compound | IC50 [1] | inhibition at 1 µM [3] | inhibition at 0.1 µM [3] | inhibition at 0.01 µM [3] | inhibition at 100 µM [2] | inhibition at 10 µM [2]
Cc1c2c(c3ccccc3c1O)OC(C)(C)C2c1cccnc1 (stereo not drawn) [Example 5] | 0.12 µM | 99% | 22% | 0% | 84% | 54%
Cc1c(C)c2c(c(C)c1O)C(c1cccnc1)C1(CCCCC1)O2 (stereo not drawn) [Example 3, 5-hydroxy-4,6,7-trimethyl-3-(3-pyridyl)-3H-benzofuran-2-spirocyclohexane] | 0.15 µM | 91% | 64% | 20% | 40% | 7%
Cc1c(C)c2c(c(C)c1O)C(c1cccnc1)C1(CCCC1)O2 (stereo not drawn) [Example 2] | 0.75 µM | 91% | 70% | 18% | 79% | 52%

The next lines start with results.

IC50 [1] | inhibition at 1 µM [3] | inhibition at 0.1 µM [3] | inhibition at 0.01 µM [3] | Compound | inhibition at 100 µM [2] | inhibition at 10 µM [2]
0.13 µM | 92% | 18% | 0% | Cc1c(C)c2c(c(C)c1O)C(c1ccccc1)C(C)(C)O2 (stereo not drawn) [Example 6, 5-hydroxy-2,2,4,6,7-pentamethyl-3-phenyl-2,3-dihydrobenzofuran] | 49% | 7%
0.25 µM | 98% | 18% | 0% | Cc1c(C)c2c(c(C)c1O)C(c1ccccn1)C(C)(C)O2 (stereo not drawn) [Example 4] | 29% | 9%
0.22 µM | 89% | 57% | 16% | Cc1c(C)c2c(c(C)c1O)C(c1cccnc1)C(C)(C)O2 (stereo not drawn) [Example 1, 5-hydroxy-2,2,4,6,7-pentamethyl-3-(3-pyridyl)-2,3-dihydrobenzofuran] | 76% | 47%
